Assay results: ChEMBL document CHEMBL2380247, “Synthesis and biological evaluation of novel aliphatic amido-quaternary ammonium salts for anticancer chemotherapy: part II” (2013)
The source made the active and inactive calls. The calls are words filed in the database; no cut-off is given here.

What was measured:
NUGC-3 [1] = assay: Antiproliferative activity against human NUGC3 cells at 0.3 uM by SRB assay; type: functional
NUGC-3 [2] = assay: Antiproliferative activity against human NUGC3 cells at 0.1 uM by SRB assay; type: functional
NUGC-3 [3] = assay: Antiproliferative activity against human NUGC3 cells at 1 uM by SRB assay; type: functional
NUGC-3 [4] = assay: Antiproliferative activity against human NUGC3 cells at 10 uM by SRB assay; type: functional
NUGC-3 [5] = assay: Antiproliferative activity against human NUGC3 cells at 3 uM by SRB assay; type: functional
MDA-MB-231 [6] = assay: Antiproliferative activity against human MDA-MB-231 cells at 0.1 uM by SRB assay; type: functional
MDA-MB-231 [7] = assay: Antiproliferative activity against human MDA-MB-231 cells at 0.3 uM by SRB assay; type: functional
MDA-MB-231 [8] = assay: Antiproliferative activity against human MDA-MB-231 cells at 1 uM by SRB assay; type: functional
MDA-MB-231 [9] = assay: Antiproliferative activity against human MDA-MB-231 cells at 10 uM by SRB assay; type: functional
MDA-MB-231 [10] = assay: Antiproliferative activity against human MDA-MB-231 cells at 3 uM by SRB assay; type: functional
ACHN [11] = assay: Antiproliferative activity against human ACHN cells at 0.1 uM by SRB assay; type: functional
ACHN [12] = assay: Antiproliferative activity against human ACHN cells at 1 uM by SRB assay; type: functional
ACHN [13] = assay: Antiproliferative activity against human ACHN cells at 0.3 uM by SRB assay; type: functional
ACHN [14] = assay: Antiproliferative activity against human ACHN cells at 3 uM by SRB assay; type: functional
ACHN [15] = assay: Antiproliferative activity against human ACHN cells at 10 uM by SRB assay; type: functional
NCI-H23 [16] = assay: Antiproliferative activity against human NCI-H23 cells at 0.3 uM by SRB assay; type: functional
NCI-H23 [17] = assay: Antiproliferative activity against human NCI-H23 cells at 0.1 uM by SRB assay; type: functional
NCI-H23 [18] = assay: Antiproliferative activity against human NCI-H23 cells at 3 uM by SRB assay; type: functional
NCI-H23 [19] = assay: Antiproliferative activity against human NCI-H23 cells at 1 uM by SRB assay; type: functional
NCI-H23 [20] = assay: Antiproliferative activity against human NCI-H23 cells at 10 uM by SRB assay; type: functional
PC-3 [21] = assay: Antiproliferative activity against human PC3 cells at 0.1 uM by SRB assay; type: functional
PC-3 [22] = assay: Antiproliferative activity against human PC3 cells at 1 uM by SRB assay; type: functional
PC-3 [23] = assay: Antiproliferative activity against human PC3 cells at 0.3 uM by SRB assay; type: functional
PC-3 [24] = assay: Antiproliferative activity against human PC3 cells at 3 uM by SRB assay; type: functional
HCT-15 [25] = assay: Antiproliferative activity against human HCT15 cells at 0.1 uM by SRB assay; type: functional
PC-3 [26] = assay: Antiproliferative activity against human PC3 cells at 10 uM by SRB assay; type: functional
HCT-15 [27] = assay: Antiproliferative activity against human HCT15 cells at 0.3 uM by SRB assay; type: functional
HCT-15 [28] = assay: Antiproliferative activity against human HCT15 cells at 3 uM by SRB assay; type: functional
HCT-15 [29] = assay: Antiproliferative activity against human HCT15 cells at 1 uM by SRB assay; type: functional
HCT-15 [30] = assay: Antiproliferative activity against human HCT15 cells at 10 uM by SRB assay; type: functional
[31] = target: Rho-related GTP-binding protein RhoB (Homo sapiens) (UniProt P62745); assay: Transactivation of RhoB in human HeLa cells by luciferase reporter assay; type: cell-based
Chain of Rho-related GTP-binding protein RhoB (Homo sapiens) (P62745 whole entry): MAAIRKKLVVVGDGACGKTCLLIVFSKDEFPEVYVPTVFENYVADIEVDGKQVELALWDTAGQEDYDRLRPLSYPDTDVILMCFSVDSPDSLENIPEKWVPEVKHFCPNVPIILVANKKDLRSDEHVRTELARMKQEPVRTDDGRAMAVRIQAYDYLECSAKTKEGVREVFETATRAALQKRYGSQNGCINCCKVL

NCI-H23 [32] = assay: Antiproliferative activity against human NCI-H23 cells by SRB assay; type: functional
NUGC-3 [33] = assay: Antiproliferative activity against human NUGC3 cells by SRB assay; type: functional
HCT-15 [34] = assay: Antiproliferative activity against human HCT15 cells by SRB assay; type: functional
ACHN [35] = assay: Antiproliferative activity against human ACHN cells by SRB assay; type: functional
MDA-MB-231 [36] = assay: Antiproliferative activity against human MDA-MB-231 cells by SRB assay; type: functional
PC-3 [37] = assay: Antiproliferative activity against human PC3 cells by SRB assay; type: functional

Compound | growth, % of control at 0.3 µM (NUGC-3 [1]) | growth, % of control at 0.1 µM (NUGC-3 [2]) | growth, % of control at 1 µM (NUGC-3 [3]) | growth, % of control at 10 µM (NUGC-3 [4]) | growth, % of control at 3 µM (NUGC-3 [5]) | growth, % of control at 0.1 µM (MDA-MB-231 [6]) | growth, % of control at 0.3 µM (MDA-MB-231 [7]) | growth, % of control at 1 µM (MDA-MB-231 [8]) | growth, % of control at 10 µM (MDA-MB-231 [9]) | growth, % of control at 3 µM (MDA-MB-231 [10]) | growth, % of control at 0.1 µM (ACHN [11]) | growth, % of control at 1 µM (ACHN [12]) | growth, % of control at 0.3 µM (ACHN [13]) | growth, % of control at 3 µM (ACHN [14]) | growth, % of control at 10 µM (ACHN [15]) | growth, % of control at 0.3 µM (NCI-H23 [16]) | growth, % of control at 0.1 µM (NCI-H23 [17]) | growth, % of control at 3 µM (NCI-H23 [18]) | growth, % of control at 1 µM (NCI-H23 [19]) | growth, % of control at 10 µM (NCI-H23 [20]) | other results
CCCCCCCCCCCCCC(=O)N(C)CCC[N+](C)(C)C | 70.3% | 85.1% | 35.7% | 13.7% | 23.3% | 95.2% | 98.7% | 88.9% | 23.8% | 54.6% | 81.1% | 72.4% | 82.2% | 41.2% | 21.2% | 99.1% | 97.3% | 8.98% | 61.8% | -5.73% | growth, % of control at 0.1 µM (PC-3 [21]): 86.7%; growth, % of control at 1 µM (PC-3 [22]): 32.1%; growth, % of control at 0.3 µM (PC-3 [23]): 87.1%; growth, % of control at 3 µM (PC-3 [24]): -1.93%; growth, % of control at 0.1 µM (HCT-15 [25]): 88%; growth, % of control at 10 µM (PC-3 [26]): -4.36%; growth, % of control at 0.3 µM (HCT-15 [27]): 90.9%; growth, % of control at 3 µM (HCT-15 [28]): 62%; growth, % of control at 1 µM (HCT-15 [29]): 82.6%; growth, % of control at 10 µM (HCT-15 [30]): 16.5%; Activity [31]: Active; GI50 (NCI-H23 [32]): 560 nM; GI50 (NUGC-3 [33]): 320 nM; GI50 (HCT-15 [34]): 1720 nM; GI50 (ACHN [35]): 1010 nM; GI50 (MDA-MB-231 [36]): 1780 nM; GI50 (PC-3 [37]): 320 nM
CCCCCCCCCCCCCC(=O)N(C)CC[N+](C)(C)C | 70.9% | 100% | 22.5% | -11.9% | -3.9% | 98.5% | 94.7% | 74.2% | 5.2% | 26.6% | 84.4% | 34.4% | 73.3% | 9.6% | -15.9% | 80.1% | 99.8% | 36.1% | 79.7% | 4.1% | growth, % of control at 0.1 µM (PC-3 [21]): 96.6%; growth, % of control at 1 µM (PC-3 [22]): 38.4%; growth, % of control at 0.3 µM (PC-3 [23]): 96.4%; growth, % of control at 3 µM (PC-3 [24]): -4.8%; growth, % of control at 0.1 µM (HCT-15 [25]): 91%; growth, % of control at 10 µM (PC-3 [26]): -21.7%; growth, % of control at 0.3 µM (HCT-15 [27]): 90.4%; growth, % of control at 3 µM (HCT-15 [28]): 53.1%; growth, % of control at 1 µM (HCT-15 [29]): 82.4%; growth, % of control at 10 µM (HCT-15 [30]): 19.2%; Activity [31]: Active; GI50 (NCI-H23 [32]): 920 nM; GI50 (NUGC-3 [33]): 220 nM; GI50 (HCT-15 [34]): 1470 nM; GI50 (ACHN [35]): 260 nM; GI50 (MDA-MB-231 [36]): 800 nM; GI50 (PC-3 [37]): 410 nM
CCCCCCCCCCCCCC(=O)NCCC[N+](C)(C)C | 73.2% | 84.9% | 46.7% | 14.8% | 28.7% | 83.4% | 81.2% | 80.6% | 19.1% | 58.1% | 83.3% | 77.1% | 77.2% | 58.1% | 25.4% | 96.4% | 99.4% | 39.8% | 80.9% | -15.6% | growth, % of control at 0.1 µM (PC-3 [21]): 85.2%; growth, % of control at 1 µM (PC-3 [22]): 44.6%; growth, % of control at 0.3 µM (PC-3 [23]): 87.3%; growth, % of control at 3 µM (PC-3 [24]): -4.97%; growth, % of control at 0.1 µM (HCT-15 [25]): 83.5%; growth, % of control at 10 µM (PC-3 [26]): -22.8%; growth, % of control at 0.3 µM (HCT-15 [27]): 82.5%; growth, % of control at 3 µM (HCT-15 [28]): 33%; growth, % of control at 1 µM (HCT-15 [29]): 71.6%; growth, % of control at 10 µM (HCT-15 [30]): 14.7%; Activity [31]: Active; GI50 (NCI-H23 [32]): 1020 nM; GI50 (NUGC-3 [33]): 430 nM; GI50 (HCT-15 [34]): 790 nM; GI50 (ACHN [35]): 1560 nM; GI50 (MDA-MB-231 [36]): 1480 nM; GI50 (PC-3 [37]): 390 nM
